In ChEMBL document CHEMBL4266024, “Phytochemical Study of Senecio volckmannii Assisted by CASE-3D with Residual Dipolar Couplings and Isotropic 1H/13C NMR Chemical Shifts” (2018):

Legend:
Format in all cases: functional
HBL-100 = test: Growth inhibition of human HBL100 cells after 48 hrs by sulforhodamine B assay; details: HBL-100, 48 h
SW1573 = test: Growth inhibition of human SW1573 cells after 48 hrs by sulforhodamine B assay; details: SW1573, 48 h
A549 = test: Growth inhibition of human A549 cells after 48 hrs by sulforhodamine B assay; details: A549, 48 h
WiDr = test: Growth inhibition of human WiDr cells after 48 hrs by sulforhodamine B assay
T47D = test: Growth inhibition of human T47D cells after 48 hrs by sulforhodamine B assay
HeLa = test: Growth inhibition of human HeLa cells after 48 hrs by sulforhodamine B assay

Measured: GI50

CC(C)=C1C[C@@]2(C)C(=CC1=O)CCC[C@@H]2C
> 10 µM: all assays above

C[C@H]1CCCC2=CC(=O)C(C(C)(C)O)=C[C@@]21C
> 10 µM: all assays above

CC1=C2C[C@@]3(C)[C@H](C[C@@]2(O)OC1=O)C(=O)CC[C@@H]3C
> 10 µM: all assays above

CC(C)=C1C[C@@]2(C)C(=CC1=O)[C@@H](O)CC[C@@H]2C
> 10 µM: all assays above

C[C@H]1CCCC2=CC(=O)[C@H](C(C)(C)O)C[C@@]21C
> 10 µM: all assays above

CC(C)=C1C[C@@]2(C)C(=CC1=O)[C@H](O)CC[C@@H]2C
> 10 µM: all assays above

C[C@H]1CC[C@@H](O)C2=CC(=O)C(C(C)(C)O)=C[C@@]21C (relative stereo)
> 10 µM: all assays above

CC(=O)C1=C[C@@]2(C)C(=CC1=O)CCC[C@@H]2C (relative stereo)
> 10 µM: all assays above

CC(C)=C1C[C@@]2(C)[C@H](CCC(=O)[C@@H]2C)CC1=O (relative stereo)
> 10 µM: all assays above
